# Active and inactive are the calls of the source. No cut-off for these calls is given here.
# Test system: Bacillus subtilis
# Test: Antibacterial activity against Bacillus subtilis […] assessed as growth inhibition by agar disk diffusion method
# Assay type: functional, organism-based
compound,measurement,value
CCCCCCCCCCCCCC(=O)N/C=C/c1ccc(O[C@@H]2OC[C@@H](O)[C@H](OC(C)=O)[C@H]2O)cc1,Activity,inactive

# Reference: ChEMBL document CHEMBL6103616, “Isolation and Biosynthesis of Hyellamide, a Glycosylated N-Acyltyrosine Derivative, from the Cyanobacterium Hyella patelloides LEGE 07179” (J Nat Prod, 2025)
